What follows are compounds tested against T1, PDK1 kinase (Homo sapiens, UniProt O15530) (assay: PDK1 Kinase Alpha Screen Assay). Settings: Table 1; 10 μM ATP, 50 nM PDK1-4 peptide.
T1 sequence (O15530 1-556): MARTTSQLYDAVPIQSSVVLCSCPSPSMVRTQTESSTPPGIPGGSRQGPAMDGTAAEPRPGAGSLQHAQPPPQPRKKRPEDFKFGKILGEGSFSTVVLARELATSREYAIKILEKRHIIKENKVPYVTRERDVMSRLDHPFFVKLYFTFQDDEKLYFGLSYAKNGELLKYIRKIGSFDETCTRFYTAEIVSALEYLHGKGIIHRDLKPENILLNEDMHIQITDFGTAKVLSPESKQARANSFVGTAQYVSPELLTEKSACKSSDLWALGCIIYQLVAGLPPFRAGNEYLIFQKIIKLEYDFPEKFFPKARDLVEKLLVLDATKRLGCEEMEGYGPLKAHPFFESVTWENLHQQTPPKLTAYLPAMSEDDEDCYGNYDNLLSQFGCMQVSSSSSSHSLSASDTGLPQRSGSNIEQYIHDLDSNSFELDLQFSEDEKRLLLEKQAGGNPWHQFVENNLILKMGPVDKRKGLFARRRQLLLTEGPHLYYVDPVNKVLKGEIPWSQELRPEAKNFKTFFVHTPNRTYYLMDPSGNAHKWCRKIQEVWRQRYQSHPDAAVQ
Format: biochemical
Experimental: Reagents/Concentrations: The PDK1-4 peptide substrate, biotin-[…]-NH2, (SEQ ID NO: 1), was purchased from the Tufts University Core Facility. The final concentration of PDK1-4 peptide substrate was 50 nM. The ATP substrate (adenosine-[…] triphosphate) was purchased from Roche Diagnostics. The final concentration of ATP substrate was 10 μM. Phospho-(Ser/Thr) PKA substrate antibody was purchased from Cell Signaling Technology. The final concentration of antibody was 0.3 mg/mL. The Alpha Screen Protein A detection kit containing donor and acceptor beads was purchased from PerkinElmer Life Sciences. The final concentration of both donor and acceptor beads was 25 μg/mL. Alpha Screen was used for detection. The biotinylated-PDK1-4 peptide was phosphorylated by PDK1 kinase using the ATP substrate. The biotinylated-PDK1-4 peptide substrate was bound to the streptavidin coated donor bead. The antibody was bound to the protein A coated acceptor bead. The antibody bound to the phosphorylated form of the biotinylated PDK-1 peptide substrate, bringing the donor and acceptor beads into close proximity. Laser irradiation of the donor bead at 680 nm generated a flow of short-lived singlet oxygen molecules. When the donor and acceptor beads were in close proximity, the reactive oxygen generated by the irradiation of the donor beads initiated a luminescence/fluorescence cascade in the acceptor beads. This process led to a highly amplified signal with output in the 530-620 nm range. Assays were carried out in 50 mM Tris, pH=7.5, 10 mM MgCl2, 0.1% BSA, 0.01% Tween-20, 2 mM dithiolthreitol, 2.5% dimethyl sulfoxide. Reactions were stopped by adding 50 mM Tris, pH=7.5, 90 mM EDTA, 0.1% BSA, 0.01% Tween-20.
Procedure: To 10 μl, of PDK1-4 peptide, […] of test compound in dimethyl sulfoxide was added. PDK1 kinase and ATP were mixed, and 10 μL of the PDK1 kinase/ATP mix was added to start the reaction. The reaction was allowed to proceed for 3-18 hours. The reactions were then stopped by adding 10 μL of the EDTA-containing stop buffer. Beads were mixed with antibody, and 25 μL of the bead/antibody mix was then added to the stopped reactions. Plates were incubated at room temperature overnight to allow for detection development before being read. The assay was run in a 384-well format plate.

| IC50 [µM] | Structure (SMILES) |
| --- | --- |
| < 5 | C#Cc1cc2cnc(Nc3ccc(S(N)(=O)=O)cc3)nc2cc1OC [Example 49, 4-(6-ethynyl-7-methoxy-quinazolin-2-ylamino)-benzenesulfonamide] |
| 5 to 10 | COc1ncccc1-c1cc(OC)c2nc(Nc3cc(CN(C)C)cc(NC(C)=O)c3)ncc2c1 [Example 94, N-(3-((dimethylamino)-methyl)-5-(8-methoxy-6-(2-methoxypyridin-3-yl)-quinazolin-2-ylamino)-phenyl)acetamide] |
| < 5 | C#Cc1ccc2nc(Nc3cc(NC(C)=O)cc(NC(C)=O)c3)ncc2c1 [Example 105, N,N′-(5-(6-ethynyl-quinazolin-2-ylamino)-1,3-phenylene)diacetamide] |
| < 5 | CC(=O)Nc1cc(CN(C)C)cc(Nc2ncc3c(Cl)c(-c4nccs4)ccc3n2)c1 [Example 91, N-(3-(5-chloro-6-(thiazol-2-yl)quinazolin-2-ylamino)-5-((dimethyl-amino)methyl)phenyl)-acetamide] |
| < 5 | COc1cc2nc(Nc3ccc(S(N)(=O)=O)cc3)ncc2cc1Br [Example 47, 4-(6-Bromo-7-methoxyquinazolin-2-ylamino)benzenesulfonamide] |
| < 5 | C#Cc1ccc2nc(Nc3ccc(C(=O)NC4CC4)cc3)ncc2c1Cl [Example 107, 4-(5-chloro-6-ethynyl-quinazolin-2-ylamino)-N-cyclopropylbenzamide] |
| < 5 | C#Cc1ccc2nc(Nc3cccc(NS(C)(=O)=O)c3)ncc2c1 [Example 61, N-(3-(6-ethynylquinazolin-2-ylamino)phenyl)-methane-sulfonamide] |
| < 5 | C#Cc1ccc2nc(Nc3cc(NC(C)=O)cc(-c4cccnc4)c3)ncc2c1 [Example 34, N-(3-(6-Ethynylyquinazolin-2-ylamino)-5-(pyridine-3-yl)phenyl)acetamide] |
| < 5 | C#Cc1cc(OC)c2nc(Nc3ccc(C(=O)N4CCOCC4)cc3)ncc2c1Cl [Example 113, (4-(5-chloro-6-ethynyl-8-methoxyquinazolin-2-ylamino)phenyl)-(morpholino)methanone] |
| < 5 | C#Cc1ccc2nc(Nc3cc(-c4ccncc4)cc(N4CCOCC4)c3)ncc2c1 [Example 157, 6-ethynyl-N-(3-morpholino-5-(pyridin-4-yl)phenyl)quinazolin-2-amine] |
| < 5 | C#Cc1ccc2nc(Nc3cccc(N4CCOCC4)c3)ncc2c1 [Example 51, 6-ethynyl-N-(3-morpholinophenyl)-quinazolin-2-amine] |
| < 5 | CC(=O)Nc1cc(CN2CCOCC2)cc(Nc2ncc3cc(-c4cn[nH]c4)ccc3n2)c1 [Example 30, N-(3-(6-(1H-Pyrazol-4-yl)quinazolin-2-ylamino)-5-(morpholinomethyl)phenyl)acetamide] |
| 5 to 10 | COc1nc(N)ncc1-c1cc(OC)c2nc(Nc3cc(CN(C)C)cc(NC(C)=O)c3)ncc2c1 [Example 111, N-(3-(6-(2-amino-4-methoxypyrimidin-5-yl)-8-methoxyquinazolin-2-ylamino)-5-((dimethyl-amino)methyl)-phenyl)-acetamide] |
| < 5 | COc1cc2nc(Nc3ccc(C(=O)N4CCOCC4)c(Cl)c3)ncc2cc1-c1nccs1 [Example 104] |
| < 5 | CC(=O)Nc1cc(I)cc(Nc2ncc3cc(Br)ccc3n2)c1 [Example 31, N-(3-(6-Bromoquinazolin-2-ylamino)-5-iodophenyl)acetamide] |
| < 5 | CC(=O)Nc1cc(CN2CCOCC2)cc(Nc2ncc3cc(-c4nccs4)ccc3n2)c1 [Example 133, N-(3-(morpholinomethyl)-5-(6-(thiazol-2-yl)-quinazolin-2-ylamino)-phenyl)acetamide] |

| IC50 [µM] | Structure (SMILES) |
| --- | --- |
| < 5 | NC(=O)c1ccc(Nc2ncc3cc(Br)ccc3n2)cc1 [Example 79, 4-(6-bromoquinazolin-2-ylamino)benzamide] |
| < 5 | C#Cc1ccc2nc(Nc3ccc(N4CCOCC4)c(C(N)=O)c3)ncc2c1 [Example 124, 5-(6-ethynylquinazolin-2-ylamino)-2-morpholino-benzamide] |
| < 5 | COc1cc2nc(Nc3cc(CN4CCOCC4)cc(NC(C)=O)c3)ncc2cc1-c1cn[nH]c1 [Example 175, N-(3-(7-methoxy-6-(1H-pyrazol-4-yl)quinazolin-2-ylamino)-5-(morpholino-methyl)phenyl)acetamide] |
| < 5 | COc1cc(-c2nccs2)cc2cnc(Nc3cc(CN(C)C)cc(NC(C)=O)c3)nc12 [Example 87, N-(3-((dimethylamino)-methyl)-5-(8-methoxy-6-(thiazol-2-yl)quinazolin-2-ylamino)phenyl)acetamide] |
| 5 to 10 | CNC(=O)c1ccc2nc(Nc3ccc(S(N)(=O)=O)cc3)ncc2c1 [Example 37, N-methyl-2-(4-sulfamoyl-phenylamino)quinazoline-6-carboxamide] |
| 5 to 10 | COc1cc(-c2nccs2)c(-c2nccs2)c2cnc(Nc3ccc(C(=O)N4CCOCC4)cc3)nc12 [Example 170, (4-(8-methoxy-5,6-di(thiazol-2-yl)quinazolin-2-ylamino)phenyl)-(morpholino)methanone] |
| < 5 | C#Cc1ccc2nc(Nc3cc(CN(C)C)cc(NC(C)=O)c3)ncc2c1Cl [Example 90, N-(3-(5-chloro-6-ethynyl-quinazolin-2-ylamino)-5-((dimethylamino)methyl)-phenyl)acetamide] |
| < 5 | C#Cc1ccc2nc(Nc3cc(CN4CCOCC4)cc(NC(=O)C(C)C)c3)ncc2c1 [Example 142, N-(3-(6-ethynylquinazolin-2-ylamino)-5-(morpholino-methyl)phenyl)-isobutyramide] |
| < 5 | C#Cc1ccc2nc(Nc3cc(NC(C)=O)cc(NC(C)=O)c3)ncc2c1Cl [Example 130, N,N′-(5-(5-chloro-6-ethynylquinazolin-2-ylamino)-1,3-phenylene-) diacetamide] |
| < 5 | C#Cc1ccc2nc(Nc3cc(CN4CCOCC4)cc(NS(C)(=O)=O)c3)ncc2c1F [Example 162, N-(3-(6-ethynyl-5-fluoro-quinazolin-2-ylamino)-5-(morpholinomethyl)-phenyl)-methanesulfonamide] |
| < 5 | C#Cc1ccc2nc(Nc3cc(CN4CCOCC4)cc(-c4nnn[nH]4)c3)ncc2c1 [Example 149, 6-ethynyl-N-(3-(morpholinomethyl)-5-(1H-tetrazol-5-yl)phenyl)-quinazolin-2-amine] |
| 10 to 25 | COc1cc(C#Cc2cccnc2)cc2cnc(Nc3ccc(S(N)(=O)=O)cc3)nc12 [Example 53, 4-(8-methoxy-6-(pyridin-3-ylethynyl)quinazolin-2-ylamino)benzene-sulfonamide] |
| < 5 | COc1cc(-c2nccs2)c(Cl)c2cnc(Nc3ccc(N4CCOCC4)cc3)nc12 [Example 115, 5-chloro-8-methoxy-N-(4-morpholinophenyl)-6-(thiazol-2-yl)quinazolin-2-amine] |
| < 5 | C#Cc1ccc2nc(Nc3cc(CN(C)C)cc(NC(C)=O)c3)ncc2c1 [Example 83, N-(3-((dimethylamino)-methyl)-5-(6-ethynyl-quinazolin-2-ylamino)-phenyl)acetamide] |
| < 5 | C#Cc1ccc2nc(Nc3cc(-c4cn[nH]c4)cc(N4CCOCC4)c3)ncc2c1 [Example 158, 6-ethynyl-N-(3-morpholino-5-(1H-pyrazol-4-yl)phenyl)-quinazolin-2-amine] |
